{
  "source": "patent US20160101177A1",
  "about": "“pH AND LIGHT ACTIVATED ANTI-CANCER DRUGS” (The Board of Trustees of the University of Alabama, priority 2014, published 2016)",
  "key": {"[1]": {"test": "Kinetics of light-induced ligand photo-dissociation monitored by UV/visible spectroscopy", "type": "physicochemical", "details": "for rate of photodecomposition / ligand loss: pH 7.5 in water", "text": "The rate of ligand loss from [Ru(bpy)2(66′bpy(OH)2)]^2+ to give the active anti-cancer agent ([Ru(bpy)2(solvent)2]^2+) can depend greatly on pH and the solvent composition. At pH 5 in aqueous solution, [Ru(bpy)2(66′bpy(OH)2)]^2+ undergoes blue light induced ligand loss which was monitored by UV/visible spectroscopy over one hour (graph (a) in FIG. 8). At this pH, which is below pKa1 and pKa2, the dihydroxybipyridine ligand should be in its native (protonated) state and should correspond to weaker Ru—N bonds (cf. deprotonated ligand), due to a less electron rich ligand as corroborated by crystallographic and computational results described herein. […] This A→B process is consistent with the clean isosbestic point observed, and furthermore, a first or second order process can be ruled out due to non-linear (curved) plots for these rate laws (see supplementary materials).\nAt this pH, which is above pKa1 and pKa2, the 6,6′-dihydroxybipyridine ligand should be fully deprotonated, which corresponds to stronger Ru—N bonds. Slight fluctuations in the absorbance values can be attributed to noise, and at this pH the rate of photodecomposition appears to be zero. Thus, the deprotonated, more strongly donating ligand appears to block photodecomposition. Thus, this establishes the framework for how a metal-based prodrug can be selectively activated in cancer cells, which have a lower pH as compared to normal cells.\nStudies in acetonitrile were done to monitor the process that gave rise to ([Ru(bpy)2(CH3CN)2]^2+) and investigate the influence of solvent on the rates. […] In contrast, upon irradiation with blue light (450 nm), [Ru(bpy)2(66′bpy(OH)2)]^2+ in acetonitrile undergoes decomposition to give [Ru(bpy)2(CH3CN)2)]^2+ and the free ligand, 66′bpy(OH)2 (λmax=343 nm, 421 nm). These products have been prepared independently and their spectra are consistent with those shown for the final result of photodecomposition (graph (c) in FIG. 8). The observed zero order rate constant, kobs=2.6×10^−7 M/s, was determined by fitting an A→B process at 457 nm. The large changes in light absorption show a clean isosbestic point at λ=422 nm and is consistent with an A→B process. Furthermore, the light induced loss of a ligand is consistent with a zero order process that is independent of concentration. The observed rate constant, kobs=2.6(1)×10^−7 M/s, reflects that photodecomposition is nearly complete (87%) in 5 minutes, and it is entirely complete within 20 minutes, graph (c) in FIG. 8. Thus, the reaction proceeds 15 times more quickly in acetonitrile vs. pH 5 aqueous media. This could be attributed to decreased back reaction in acetonitrile, or enhanced stability of the product ligand in acetonitrile since it is better solvated. The product complex is analogous to the likely product of photodecomposition in vivo, namely [Ru(bpy)2(H2O)2)]^2+."}, "[2]": {"test_system": "human cervical carcinoma (HeLa) cells", "test": "MTT cell viability assay in HeLa cells with or without 450 nm irradiation", "type": "cell-based", "details": "for HeLa cell viability, no irradiation: absence of light; for IC50: read-out: IC50 (error)", "protocol": "For cell culture, human cervical carcinoma (HeLa) cells were obtained from the ATCC. The cells were cultured at 37° C. in a 5% CO2, humidified atmosphere in Dulbecco's Modified Eagle Medium (DMEM) supplemented with 10% fetal bovine serum, 100 U/mL penicillin, and 100 μg/ml streptomycin (Invitrogen). Assays were accomplished by seeding cells at a density of 5,000 cells/well in a 96-well plate and incubated at 37° C. overnight. Media was exchanged and then cells were treated with either 100 μM [Ru(bpy)2(66′bpy(OH)2)]^2+, [Ru(bpy)2(44′bpy(OH)2)]^2+, or [Ru(bpy)3]^2+ for 48 h. The medium containing compounds was discarded, cells were washed, and fresh Hank's Balanced Salt Solution was added. In the dark, cells were irradiated using a 450 nm light emitting diode (LED) flashlight positioned 4 cm from the plate for 1 h. The salt solution was exchanged with media and cells were allowed to grow for 24 h. Media containing 20 μL of 3-(4,5-dimethylthiazol-2-yl)-[…] bromide (MTT) (5 mg/mL) was added to each well and incubated for an additional 3 h. The medium was removed. After adding 200 μL of DMSO to each well, the optical densities at 570 nm were determined The p-values were calculated from triplicate data sets using KaleidaGraph software.\nUpon irradiation the [Ru(bpy)2(66′bpy(OH)2)]^2+ prodrug can be converted into a cytotoxic agent while in a cell. For example, HeLa cells were plated, incubated with [Ru(bpy)2(66′bpy(OH)2)]^2+, irradiated, and an MTT cell viability assay was used to assess cellular viability. […] The average viability dropped to 93+/−6%. The change is not statistically significant with p greater than 0.05. Similar results were obtained when cells were not treated with the agent and only irradiated for one hour. The viability dropped to 88+/−9%. […] When [Ru(bpy)2(66′bpy(OH)2)]^2+ was incubated with HeLa cells and irradiated the viability dropped to 47+/−12%. This is a statistically significant drop with p less than 0.004 and 0.02 for no ruthenium-complex and no irradiation respectively. Further experiments changing the concentration of [Ru(bpy)2(66′bpy(OH)2)]^2+ in HeLa cells under irradiation can allow for measurement of an inhibitory concentration (IC50). The IC50 for anti-cancer activity is given in Table 1, which are consistent with the data in FIG. 3."}, "[3]": {"test": "pH titration by UV/visible absorbance in aqueous buffers (pKa)", "type": "physicochemical", "details": "aqueous buffers pH 1 to 13, 25° C.", "protocol": "^1H-NMR spectra were collected on a Varian 300 MHz Fourier Transform spectrometer in deuterated acetonitrile (CD3CN) Infrared spectra were obtained on a Perkin Elmer Spectrum One FT-IR with Universal ATR sampling accessory. UV-visible absorption spectra were collected on a Scinco S-3100 diode-array spectrophotometer at a resolution of 1 nm. Luminescence data was collected on a Horiba Jobin Yvon Fluoromax 3. pH measurements were performed using a VWR SympHony pH meter, utilizing a three point calibration at pH=4.0, 7.0, and 10.0.\nUV/visible absorbance data was collected for [Ru(bpy)2(66′bpy(OH)2)]^2+ in aqueous buffers ranging from pH=1 to pH=13, FIG. 6. The deprotonated form of [Ru(bpy)2(66′bpy(OH)2)]^2+ is red shifted compared to the protonated form of the complex. The pH titration data can show two distinct events that yielded a pKa1=5.26 and pKa2=7.27."}, "[4]": {"details": "100 μM complex for 48 h, untreated non-irradiated cells = 100%"}, "[5]": {"details": "HeLa cells under irradiation (450 nm, 1 h), MTT"}},
  "note": "Where “and” joins values, the source holds several entries; their conditions need not be identical. Equal values may be shown once.",
  "data": [
    {"smiles": "F[P-](F)(F)(F)(F)F.F[P-](F)(F)(F)(F)F.Oc1ccnc(-c2cc(O)ccn2)c1.[Ru+2].c1ccc(-c2ccccn2)nc1.c1ccc(-c2ccccn2)nc1", "note": "[[Ru(bpy)2(44′bpy(OH)2)]^2+, [Ru(bpy)2(44′bpy(OH)2)][PF6]2]", "values": [
      {"measurement": "photo-dissociation of ligand", "setting": "[1]; blue light", "value": "no photo-dissociation"},
      {"measurement": "HeLa cell viability, no irradiation", "setting": "[2]; [4]", "value": "91+/−4%"},
      {"measurement": "IC50 (error)", "setting": "[2]; [5]", "value": "no significant effects"},
      {"measurement": "IC50", "setting": "[2]; [5]", "value": "> 100", "unit": "µM"}
    ]},
    {"smiles": "F[P-](F)(F)(F)(F)F.F[P-](F)(F)(F)(F)F.O.Oc1cccc(-c2cccc(O)n2)n1.[Ru+2].c1ccc(-c2ccccn2)nc1.c1ccc(-c2ccccn2)nc1", "note": "[[Ru(bpy)2(66′bpy(OH)2)]^2+, [Ru(bpy)2(66′bpy(OH)2)][PF6]2.H2O]", "values": [
      {"measurement": "rate in acetonitrile vs. pH 5 aqueous media", "setting": "[1]; 450 nm blue light", "value": 15, "unit": "times"},
      {"measurement": "time to entirely complete photodecomposition", "setting": "[1]; acetonitrile, 450 nm blue light", "value": "≤ 20", "unit": "min"},
      {"measurement": "extent of photodecomposition", "setting": "[1]; acetonitrile, 450 nm blue light, 5 minutes", "value": 87, "unit": "%"},
      {"measurement": "kobs, zero order rate constant of photodecomposition", "setting": "[1]; acetonitrile, 450 nm blue light, followed at 457 nm", "value": "2.6(1)×10^−7 M/s"},
      {"measurement": "kobs, zero order rate constant of blue light induced ligand loss", "setting": "[1]; pH 5 aqueous solution, 450 nm blue light, initial rate 0-300 s, followed at 461 nm", "value": "1.7(2)×10^−8 M/s"},
      {"measurement": "ligand dissociation", "setting": "[1]; pH 5 in water, blue light", "value": "readily dissociates"},
      {"measurement": "rate of photodecomposition / ligand loss", "setting": "[1]; 450 nm blue light", "value": "no measurable photodecomposition"},
      {"measurement": "rate of photodecomposition / ligand loss", "setting": "[1]; 450 nm blue light, listed as [Ru(bpy)2(66′bpy(OH)2)2)]^2+", "value": "zero"},
      {"measurement": "stability in acetonitrile solution", "setting": "[1]; protected from light or exposed to 720 nm red light", "value": "stable"},
      {"measurement": "HeLa cell viability, with irradiation", "setting": "[2]; 100 μM complex for 48 h, then 450 nm irradiation for 1 h, untreated non-irradiated cells = 100%", "value": "47+/−12% and 47%"},
      {"measurement": "IC50", "setting": "[2]; [5]", "value": 88, "unit": "µM"},
      {"measurement": "pKa1", "setting": "[3]", "value": 5.26},
      {"measurement": "pKa2", "setting": "[3]", "value": 7.27}
    ]},
    {"smiles": "[Cl][Ru][Cl].c1ccc(-c2ccccn2)nc1.c1ccc(-c2ccccn2)nc1.c1ccc(-c2ccccn2)nc1", "note": "[[Ru(bpy)3]^2+, [Ru(bpy)3][Cl]2]", "values": [
      {"measurement": "HeLa cell viability, no irradiation", "setting": "[2]; [4]", "value": "91+/−4%"},
      {"measurement": "IC50", "setting": "[2]; [5]", "value": 152, "unit": "µM"}
    ]}
  ]
}
